Laboratory results as given in patent US20070116820A1, “EDIBLE GEL COMPOSITIONS COMPRISING HIGH-POTENCY SWEETENERS” (THE COCA-COLA COMPANY, priority 2005, published 2007).

Legend:
[1] = Rate of dissolution of rebaudioside A polymorph and amorphous forms in H2O at 25° C.; assay type: physicochemical
[2] = assay type: physicochemical
Experimental: A solution of rebaudioside A (>97% pure by HPLC ) was prepared in double distilled water (12.5 gm in 50 mL, 25% concentration) by stirring the mixture at 40° C. for 5 minutes. An amorphous form of rebaudioside A was formed by immediately using the clear solution for spray drying with the Lab-Plant spray drier SD-04 instrument (Lab-Plant Ltd., West Yorkshire, U.K.). The solution was fed through the feed pump into the nozzle atomizer which atomized it into a spray of droplets with the help of a constant flow of nitrogen/air. […] This dry powder (11-12 g, H2O 6.74%) was discharged continuously from the drying chamber and was collected in a bottle.

Substance	Rate of dissolution in H2O at 25° C. ([1]; per 60 minutes)	Rate of dissolution in H2O at 25° C. ([1]; per 5 minutes)	solubility in water at room temperature [2]
rebaudioside A [Form 1]	(<0.2%/ %/60 minutes		
rebaudioside A [Form 2]		(<30%/ %/5 minutes	
rebaudioside A [Form 3]		High (>30%/ %/5 minutes	
rebaudioside A [Form 4]		High (>35.0%/ %/5 minutes	> 35.0%
